{"source": "paper PMC12548419", "about": "(Journal of Virology, 2025)", "key": {"[1]": {"assay": "in vivo", "settings": "cynomolgus monkey, po, 5 mg/kg"}, "[2]": {"assay": "in vitro"}, "[3]": {"tested_on": "SFTSV", "assay": "microbe, parasite or virus in culture", "assay_type": "cell-based", "settings": "for EC50: Severe fever with thrombocytopenia syndrome virus"}, "[4]": {"tested_on": "LCMV", "assay": "microbe, parasite or virus in culture", "assay_type": "cell-based, lymphocytic choriomeningitis virus (strain Armstrong)", "settings": "for EC50: Mammarenavirus choriomeningitidis"}, "[5]": {"assay": "in vivo", "settings": "Sprague-Dawley, rat, po, 10 mg/kg"}, "[6]": {"tested_on": "SFTSV", "parameters": "species or system A129 mice", "settings": "mouse, in vivo"}, "[7]": {"tested_on": "LCMV", "parameters": "species or system C57BL/6-Prf1^tm1Sdz/J mice", "settings": "mouse, in vivo"}, "[8]": {"settings": "Sprague-Dawley, rat, in vivo, po, 21 mg/kg"}, "[9]": {"tested_on": "LCMV", "assay_type": "cell-based, lymphocytic choriomeningitis virus"}, "[10]": {"tested_on": "SFTSV", "assay_type": "cell-based, severe fever with thrombocytopenia syndrome virus"}, "[11]": {"settings": "cynomolgus monkey, in vivo, po, 10.7 mg/kg"}, "[12]": {"settings": "A549, 48 h, read-out: EC50 (μM) mean ± sd SFTSV A549"}, "[13]": {"settings": "Huh-7, 48 h, read-out: EC50 (μM) mean ± sd SFTSV Huh-7"}, "[14]": {"settings": "Vero, 48 h, read-out: EC50 (μM) mean ± sd SFTSV Vero"}, "[15]": {"settings": "read-out: EC50 range for SFTSV over all cell lines evaluated"}, "[16]": {"settings": "A549, 48 h, read-out: EC50 (μM) mean ± sd LCMV A549"}, "[17]": {"settings": "BHK-21, 48 h, read-out: EC50 (μM) mean ± sd LCMV BHK-21"}, "[18]": {"settings": "Vero, 48 h, read-out: EC50 (μM) mean ± sd LCMV Vero"}, "[19]": {"settings": "read-out: EC50 range for LCMV over all cell lines evaluated"}}, "note": "Where “and” joins values, the source holds several entries; their conditions need not be identical. Identical values can stand only once. Like-named read-outs stand apart in the source and are kept apart here."}
{"smiles": "O=c1ccn([C@@H]2O[C@](F)(CO)[C@@H](O)[C@H]2O)c(=O)[nH]1", "note": "[4′-FlU, 4′-Fluorouridine]", "values": [{"measurement": "AUC0-t", "setting": "[1]", "value": 10700, "unit": "ng·h/mL"}, {"measurement": "Cmax", "setting": "[1]", "value": 1500, "unit": "ng/mL"}, {"measurement": "half-life", "setting": "[1]", "value": "6.82 ± 0.46", "unit": "h"}, {"measurement": "CC50", "setting": "[2]", "value": "> 500", "unit": "µM"}, {"measurement": "SI values SFTSV A549", "setting": "[3]", "value": "> 210.67"}, {"measurement": "SI values SFTSV Huh-7", "setting": "[3]", "value": "> 214.23"}, {"measurement": "SI values SFTSV Vero", "setting": "[3]", "value": "> 245.98"}, {"measurement": "EC50", "setting": "[3]; [12]", "value": "2.37 ± 0.16", "unit": "µM"}, {"measurement": "EC50", "setting": "[3]; [13]", "value": "2.33 ± 0.51", "unit": "µM"}, {"measurement": "EC50", "setting": "[3]; [14]", "value": "2.03 ± 0.82", "unit": "µM"}, {"measurement": "EC50", "setting": "[3]; [15]", "value": "2.03 to 2.37", "unit": "µM"}, {"measurement": "SI values LCMV A549", "setting": "[4]", "value": "> 4826.57"}, {"measurement": "SI values LCMV BHK-21", "setting": "[4]", "value": "> 3389.68"}, {"measurement": "SI values LCMV Vero", "setting": "[4]", "value": "> 12697.20"}, {"measurement": "EC50", "setting": "[4]; [16]", "value": "0.1 ± 0.01", "unit": "µM"}, {"measurement": "EC50", "setting": "[4]; [17]", "value": "0.15 ± 0.05", "unit": "µM"}, {"measurement": "EC50", "setting": "[4]; [18]", "value": "0.04 ± 0.01", "unit": "µM"}, {"measurement": "EC50", "setting": "[4]; [19]", "value": "0.04 to 0.15", "unit": "µM"}, {"measurement": "AUC0-t", "setting": "[5]", "value": 7280, "unit": "ng·h/mL"}, {"measurement": "Cmax", "setting": "[5]", "value": 1370, "unit": "ng/mL"}, {"measurement": "half-life", "setting": "[5]", "value": "3.39 ± 1.41", "unit": "h"}]}
{"smiles": "NC(=O)c1nc(F)c[nH]c1=O", "note": "[T-705, favipiravir]", "values": [{"measurement": "CC50", "setting": "[2]", "value": "> 500", "unit": "µM"}, {"measurement": "leukopenia, lymphocytopenia and reduction in platelet count (hematological parameters)", "setting": "[6]", "value": "relieved"}, {"measurement": "lung pathology scores", "setting": "[6]", "value": "significantly lower pathology scores"}, {"measurement": "spleen histopathology scores", "setting": "[6]", "value": "substantially reduced"}, {"measurement": "splenomegaly (spleen-to-body weight ratio)", "setting": "[6]", "value": "significantly ameliorated"}, {"measurement": "virus load in the liver, spleen, lung, and kidney (qRT-PCR and immunoplaque assays)", "setting": "[6]", "value": "significant reductions"}, {"measurement": "infectious viral titers in the spleen (immunoplaque assays)", "setting": "[6]; 300 mg/kg", "value": "marked decreases"}, {"measurement": "plasma levels of IFN-γ, TNF-α, IL-1β and IL-6", "setting": "[6]; 300 mg/kg", "value": "significantly reduced"}, {"measurement": "viral RNA copies in the spleen (qRT-PCR)", "setting": "[6]; 300 mg/kg", "value": "no statistically significant reduction"}, {"measurement": "body weight", "setting": "[6]; po, 300 mg/kg", "value": "slight initial weight loss followed by weight recovery at 5 days post-infection"}, {"measurement": "survival", "setting": "[6]; po, 300 mg/kg", "value": "survived"}, {"measurement": "SI values SFTSV A549", "setting": "[3]", "value": "> 1.79"}, {"measurement": "SI values SFTSV Huh-7", "setting": "[3]", "value": "> 160.32"}, {"measurement": "SI values SFTSV Vero", "setting": "[3]", "value": "> 24.23"}, {"measurement": "EC50", "setting": "[3]; [12]", "value": 280, "unit": "µM"}, {"measurement": "EC50", "setting": "[3]; [13]", "value": 3.12, "unit": "µM"}, {"measurement": "EC50", "setting": "[3]; [14]", "value": 20.6, "unit": "µM"}, {"measurement": "SI values LCMV A549", "setting": "[4]", "value": "> 7.36"}, {"measurement": "SI values LCMV Vero", "setting": "[4]", "value": "> 5.64"}, {"measurement": "EC50", "setting": "[4]; [16]", "value": 68, "unit": "µM"}, {"measurement": "EC50", "setting": "[4]; [18]", "value": 88.6, "unit": "µM"}, {"measurement": "body weight", "setting": "[7]", "value": "parallel body weight with that of the vehicle-treated group"}, {"measurement": "spleen damage (spleen size, pathology score, H&E staining)", "setting": "[7]", "value": "marked pathological lesions"}, {"measurement": "viral RNA copies in the liver, spleen, lung, and kidney (qRT-PCR)", "setting": "[7]", "value": "no reduction in the number of viral RNA copies was observed except in the lungs"}, {"measurement": "viral titer in the liver, spleen, lung, and kidney (immunoplaque assay)", "setting": "[7]", "value": "reduced the viral titer in the tissues"}, {"measurement": "plasma IFN-γ and granulocyte colony-stimulating factor", "setting": "[7]; 300 mg/kg", "value": "no significant effect"}, {"measurement": "survival", "setting": "[7]; po, 300 mg/kg", "value": "no survivors remaining by the end of the study"}]}
{"smiles": "CC(=O)OC[C@@]1(F)O[C@@H](n2ccc(=O)n(COC(=O)c3cccnc3)c2=O)[C@H](OC(C)=O)[C@@H]1OC(C)=O", "note": "[VV251]", "values": [{"measurement": "CC50", "setting": "[2]", "value": "> 500", "unit": "µM"}, {"measurement": "AUC0-t", "setting": "[8]", "value": "9,714 ng·h/mL"}, {"measurement": "Cmax", "setting": "[8]", "value": "1,598 ng/mL"}, {"measurement": "T1/2", "setting": "[8]", "value": "6.34 ± 0.75", "unit": "h"}, {"measurement": "leukopenia, lymphocytopenia and reduction in platelet count (hematological parameters)", "setting": "[6]", "value": "relieved"}, {"measurement": "lung pathology scores", "setting": "[6]", "value": "significantly lower pathology scores"}, {"measurement": "plasma levels of IFN-γ, TNF-α, IL-1β and IL-6", "setting": "[6]", "value": "significantly reduced"}, {"measurement": "spleen histopathology scores", "setting": "[6]", "value": "substantially reduced"}, {"measurement": "splenomegaly (spleen-to-body weight ratio)", "setting": "[6]", "value": "significantly ameliorated"}, {"measurement": "virus load in the liver, spleen, lung, and kidney (qRT-PCR and immunoplaque assays)", "setting": "[6]", "value": "significant reductions"}, {"measurement": "body weight", "setting": "[6]; po, 1 mg/kg", "value": "significant reduction in body weight"}, {"measurement": "survival", "setting": "[6]; po, 1 mg/kg", "value": "only one mouse surviving until the end of the study"}, {"measurement": "mice that died", "setting": "[6]; po, 5 mg/kg", "value": "one"}, {"measurement": "body weight", "setting": "[6]; po, 10 mg/kg", "value": "remained stable"}, {"measurement": "antiviral effect on addition of exogenous natural nucleosides", "setting": "[9]", "value": "competitively reversed by supplementation with exogenous uridine and cytidine"}, {"measurement": "SI values SFTSV A549", "setting": "[3]", "value": "> 96.94"}, {"measurement": "SI values SFTSV Vero", "setting": "[3]", "value": "> 168.75"}, {"measurement": "EC50", "setting": "[3]; [12]", "value": 5.16, "unit": "µM"}, {"measurement": "EC50", "setting": "[3]; [13]", "value": 0.65, "unit": "µM"}, {"measurement": "EC50", "setting": "[3]; [14]", "value": 2.96, "unit": "µM"}, {"measurement": "EC50", "setting": "[3]; [15]", "value": "0.65 to 5.16", "unit": "µM"}, {"measurement": "SI values LCMV A549", "setting": "[4]", "value": "> 6559.96"}, {"measurement": "SI values LCMV BHK-21", "setting": "[4]", "value": "> 3177.56"}, {"measurement": "SI values LCMV Vero", "setting": "[4]", "value": "> 3628.85"}, {"measurement": "fold lower EC50 than T-705 against LCMV", "setting": "[4]", "value": "849.6 fold and 632.9 fold"}, {"measurement": "EC50", "setting": "[4]; [16]", "value": 0.08, "unit": "µM"}, {"measurement": "EC50", "setting": "[4]; [17]", "value": "0.16 ± 0.05", "unit": "µM"}, {"measurement": "EC50", "setting": "[4]; [18]", "value": 0.14, "unit": "µM"}, {"measurement": "EC50", "setting": "[4]; [19]", "value": "0.08 to 0.16", "unit": "µM"}, {"measurement": "body weight", "setting": "[7]", "value": "remained stable"}, {"measurement": "hematological parameters (white blood cell, platelet, lymphocyte count)", "setting": "[7]", "value": "ameliorated viremia induced by LCMV infection"}, {"measurement": "number of viral RNA copies relative to the vehicle group", "setting": "[7]", "value": "more than one order of magnitude lower"}, {"measurement": "plasma IFN-γ and granulocyte colony-stimulating factor", "setting": "[7]", "value": "statistically significant reduction"}, {"measurement": "spleen damage (spleen size, pathology score, H&E staining)", "setting": "[7]", "value": "ameliorated spleen damage efficiently"}, {"measurement": "viral RNA copies in the liver, spleen, lung, and kidney (qRT-PCR)", "setting": "[7]", "value": "significantly decreased"}, {"measurement": "viral titer in the liver, spleen, lung, and kidney (immunoplaque assay)", "setting": "[7]", "value": "significantly decreased"}, {"measurement": "antiviral effect on addition of exogenous natural nucleosides", "setting": "[10]", "value": "competitively reversed by supplementation with exogenous uridine and cytidine"}, {"measurement": "AUC0-t", "setting": "[11]", "value": "14,922 ng·h/mL"}, {"measurement": "Cmax", "setting": "[11]", "value": "2,358 ng/mL"}, {"measurement": "T1/2", "setting": "[11]", "value": "5.45 ± 0.82", "unit": "h"}]}
